What was measured:
c-Src-ES2 (T338C/V323A) = c-Src-ES2 (T338C/V323A) (Gallus gallus (Chicken), UniProt P00523, T338C/V323A); experiment: In vitro kinase assay, c-Src-ES2; format: biochemical
Method: In vitro kinase assays for c-Src variants were performed in 50 mM Tris (pH 8.0), 10 mM MgCl2 and 1 mg/mL BSA. When obtaining kinetic parameters (kcat, Km) kinase and peptide substrate (IYGEFKKK) (SEQ ID NO:51) concentrations were 2 nM and 500 μM, respectively, while ATP concentrations ranged from 2000-0.655 μM. Addition of nonradioactive ATP supplemented with ^32P ATP (3,000 Ci/mmol, NEN) was used to initiate kinase reactions. Time points were selected such that product formation never exceeded 10%. Reactions were quenched by spotting 3 μL quantities onto phosphocellulose sheets (P81, Whatman). Afterwards, the sheets were washed 3×5 minutes in 0.5% phosphoric acid and dried. Radioactivity was measured by phosphorimaging and recorded on a Typhoon fluorescence imager (Molecular Dynamics). Data were plotted as rate (min^−1) versus ATP concentration and fitted to the Michaelis-Menten equation, v=[(kcat)[S]]/(Km+[S]), using Kaleidagraph software (Synergy) to extract kinetic parameters. When obtaining IC50 values for the inhibitors, 2% (v/v) DMSO was included in kinase reactions. In these cases ATP, peptide, and enzyme concentrations were 15 nM, 100 μM and 5 nM, respectively, while inhibitor concentrations ranged from 10,000-0.610 nM. In all cases, a ten-minute preincubation step between the kinase and the inhibitor preceded addition of ATP and a fifteen-minute reaction. The data was fitted to a sigmoidal dose-response curve using Prism 4.0c (GraphPad Software) to obtain IC50 values.

T338C c-Src = T338C c-Src (Gallus gallus (Chicken), UniProt P00523, T338C); experiment: Full protein mass spectrometry of covalent labeling; format: binding; details: two equivalents of inhibitor
Method: Protein labeling conditions: Kinase labeling reactions were performed by incubating 30 μL quantities of c-Src variants (in 50 mM Tris pH 8, 100 mM NaCl, 1 mM DTT, 5% glycerol) with two equivalents of inhibitor in DMSO (final DMSO concentration=2.4%). The covalent labeling reaction was quenched by removing 4 μL and adding it to 31 μL of 0.1% formic acid. The sample was then analyzed by ES1-oa-TOF mass spectrometry.

307 kinases = experiment: Kinome-wide profiling (SelectScreen Kinase Profiling Service); format: biochemical; details: compounds at 1 μM, ATP at Km,app
Method: The percent inhibition results in FIG. were generated with biochemical enzymatic kinase assays using the SelectScreen® Kinase Profiling Service (Life Technologies Corporation, Madison, Wis.). Compounds were assayed at 1 μM at an ATP concentration equal to the ATP Km,app for the assay following the detailed procedures described in the SelectScreen® Customer Protocol and Assay Conditions documents located at www.invitrogen.com/kinaseprofiling.
Compounds that were profiled include, but are not limited to, 3, 4, 9, 13, and 20. […] The exocyclic amine mimics N6 of ATP and plays an important role in a hydrogen bonding interaction with the hinge region of kinases.

## CC(C)n1nc(Cc2cccc(C(=O)CF)c2)c2c(N)ncnc21 [Compound 13, 1-(3-((4-amino-1-isopropyl-1H-pyrazolo[3,4-d]pyrimidin-3-yl)methyl)phenyl)-2-fluoroethanone]
c-Src-ES2 (T338C/V323A); ES2 = T338C/V323A, read-out: c-Src variant IC50 (nM) ES2
  IC50: 67 nM
c-Src-ES2 (T338C/V323A); c-Src-ES2 and c-Src-ES3 relative to c-Src-ES1
  change of inhibitor potency upon second-site Val323 mutations: Enhanced inhibitor potency
c-Src-ES2 (T338C/V323A); c-Src-ES2 relative to c-Src-ES1
  fold increase in potency with V323A mutation: 5 fold
T338C c-Src
  covalent labeling / adduct formation by full protein mass spectrometry: not observed
307 kinases
  off-target profile in kinome-wide screen: clean profile

From patent US9353116B2, “Methods and compositions for kinase inhibition” (THE REGENTS OF THE UNIVERSITY OF CALIFORNIA, priority 2010, dated 2016)
